Assay results from article PMC13046274, “Post-translational modifications of GlmR integrate metabolic and stress signals to maintain cell envelope homeostasis in Bacillus subtilis” (PLOS Genetics, 2026).

Experiments:
GlmR [1] = molecular target: T1, GlmR (Bacillus subtilis, UniProt O06974, T304A); test: fluorescence titration of FITC-labeled GlmR T304A, single-site fit; format: binding
T1 construct: gene mgfK; purified recombinant B. subtilis GlmR T304A, FITC-labeled (pET28a, from E. coli)

GlmR [2] = molecular target: T2, GlmR (Bacillus subtilis, UniProt O06974); test: fluorescence titration of FITC-labeled GlmR, single-site fit; format: binding
T2 construct: gene mgfK; purified recombinant B. subtilis GlmR, FITC-labeled (pET28a, from E. coli)
T2 sequence (O06974 whole entry): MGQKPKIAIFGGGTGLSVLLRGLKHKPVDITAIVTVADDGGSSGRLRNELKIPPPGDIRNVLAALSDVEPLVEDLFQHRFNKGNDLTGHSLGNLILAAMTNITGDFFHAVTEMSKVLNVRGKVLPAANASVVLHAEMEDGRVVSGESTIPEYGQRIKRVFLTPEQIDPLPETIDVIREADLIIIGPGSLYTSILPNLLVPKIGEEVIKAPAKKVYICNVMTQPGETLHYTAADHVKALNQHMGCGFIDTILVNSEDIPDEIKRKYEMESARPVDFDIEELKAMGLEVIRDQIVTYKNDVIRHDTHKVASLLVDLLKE

T1 sequence (O06974 whole entry T304A): as the sequence (O06974 whole entry) above, with T304A counted along it

`CC(=O)N[C@H]1[C@@H](OP(=O)(O)OP(=O)(O)OC[C@H]2O[C@@H](n3ccc(=O)[nH]c3=O)[C@H](O)[C@@H]2O)O[C@H](CO)[C@@H](O)[C@@H]1O` [UDP-GlcNAc] gave a Kd (GlmR [1]) of 1670 ± 310 µM and a Kd (GlmR [2]) of 280 ± 40 µM.
